Tested on: serum testosterone
Assay: Testosterone suppression in rats after injection of leuprolide acetate self-encapsulated PLGA microspheres
Assay type: in vivo, male Sprague-Dawley rats
Details: for testosterone suppression: result in words
Protocol: Evaluation of testosterone suppression in rats following injection of leuprolide acetate self-encapsulated PLGA microspheres: The ability of PLGA self-healing microencapsulation to provide long-term in vivo release was evaluated by assessing long-term testosterone suppression after a single injection of leuprolide acetate self-encapsulated PLGA microspheres in male Sprague-Dawley rats (S5-S8). The treatment of experimental animals was in accordance with University committee on use and care of animals (University of Michigan UCUCA), and all NIH guidelines for the care and use of laboratory animals. Male Sprague-Dawley rats of 6 weeks old were housed in cages and given free access to standard laboratory food and water, and allowed one week to acclimate prior to study initiation. Animals were anesthetized with 2-4% isoflurane administered by a calibrated vaporizer (Midmark, Orchard Park, N.Y., USA). The leuprolide acetate self-encapsulated PLGA microspheres (1×2-month dose), leuprolide acetate solution (1×1-month dose), and blank SM PLGA microspheres without drug (1× dose) in a liquid vehicle (1% w/v carboxymethylcellulose and 2% w/v mannitol), and commercial 1-month Lupron Depot (Abbott Laboratories, North Chicago, Ill., USA) (2× dosing at days 0 and 28) were subcutaneously injected at the back (lower neck portion) of rats (6 animals/study group). […]
PLGA self-healing microencapsulation provides long-term delivery of bioactive large molecules in vivo—Long-term testosterone suppression in rats after single injection of leuprolide acetate self-encapsulated PLGA microspheres: Leuprolide acetate (Mw=1209.6 Da) is commonly used in the treatment of hormone-dependent cancers (e.g., prostate cancer) and gynecologic disorders (e.g., endometriosis and precocious puberty). […] The ability of PLGA self-healing microencapsulation to provide long-term in vivo release was evaluated by assessing long-term testosterone suppression in male Sprague-Dawley rats (six rats/study group) in comparison with commercial Lupron Depot™ and negative controls (FIG. 2C). […]

For CCNC(=O)[C@@H]1CCCN1C(=O)[C@H](CCCNC(=N)N)NC(=O)[C@H](CC(C)C)NC(=O)[C@@H](CC(C)C)NC(=O)[C@H](Cc1ccc(O)cc1)NC(=O)[C@H](CO)NC(=O)[C@H](Cc1c[nH]c2ccccc12)NC(=O)[C@H](Cc1c[nH]cn1)NC(=O)[C@@H]1CCC(=O)N1 [leuprolide solution, Leuprolide acetate], the serum testosterone level (one day after subcutaneous injection) was about 5 ng/mL, the testosterone suppression was “failed to provide testosterone suppression below the castration level” and the testosterone suppression (listed as solution leuprolide) was “ineffective to suppress testosterone”.

Reference: US10220001B2, “Active self-healing biomaterial system” (The Regents of the University of Michigan, priority 2010, dated 2019)
